In US9522159B2, “Treatment and prevention of P. aeruginosa infections using coformycin analogs” (Albert Einstein College of Medicine, Inc., priority 2012, dated 2016):
Values joined by “and” are separate entries in the source; they are usually repeats but may differ in a detail not shown here. Identical values can stand only once. “Also recorded” adds a separate entry of the source. Like-named read-outs stand apart in the source and are kept apart here. Blank lines part the entries; values can stand above or below the compound they belong to.

How the values were obtained:
[1] = target: T1, PaMTADA (Pseudomonas aeruginosa, UniProt Q9HZ64); experiment: Deaminase activity of PaMTADA on substrates (enzymatic assays); assay type: biochemical; details: for deaminase activity on substrate: PaMTADA (recombinant PA3170), result in words
T1 sequence (Q9HZ64 1-444): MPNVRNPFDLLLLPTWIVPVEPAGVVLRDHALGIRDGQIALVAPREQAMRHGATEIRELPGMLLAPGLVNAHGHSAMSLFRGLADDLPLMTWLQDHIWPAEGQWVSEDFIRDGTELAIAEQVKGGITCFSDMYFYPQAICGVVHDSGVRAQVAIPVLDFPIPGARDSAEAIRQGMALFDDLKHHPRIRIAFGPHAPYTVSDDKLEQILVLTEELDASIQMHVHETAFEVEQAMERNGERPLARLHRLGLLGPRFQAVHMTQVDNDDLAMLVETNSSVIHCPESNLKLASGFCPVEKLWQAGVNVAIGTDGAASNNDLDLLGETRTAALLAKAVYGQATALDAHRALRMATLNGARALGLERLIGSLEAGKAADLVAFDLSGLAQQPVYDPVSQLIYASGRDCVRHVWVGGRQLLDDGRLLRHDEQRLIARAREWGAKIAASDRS
Protocol: (§1) Enzymatic assays. […] Deaminase activity on guanosine was measured at 260 nm with an extinction coefficient of 3.9 mM^−1cm^−1 (18). […] The extinction coefficient is 15.5 mM^−1cm^−1 at 305 nm. Reactions of deaminase were carried out at 25° C. in 1 cm cuvettes. Assay mixtures of 1 mL contained 50 mM Hepes, pH 7.4, 100 mM NaCl, 100 μg/mL BSA, variable concentrations of substrate, and appropriate amounts of purified PaMTADA. Reactions were initiated by addition of enzyme and the initial rates were monitored with a CARY 300 UV-Visible spectrophotometer. Control rates (no PaMTADA) were subtracted from initial rates. Kinetic parameters of PaMTADA were obtained by fitting initial rates to the Michaelis-Menten equation using GraFit 5 (Erithacus Software).

[2] = target: T2, Human ADA (Homo sapiens, UniProt P00813); details: substrate, from Tyler et al. (15); cited from earlier work
T2 sequence (P00813 1-363): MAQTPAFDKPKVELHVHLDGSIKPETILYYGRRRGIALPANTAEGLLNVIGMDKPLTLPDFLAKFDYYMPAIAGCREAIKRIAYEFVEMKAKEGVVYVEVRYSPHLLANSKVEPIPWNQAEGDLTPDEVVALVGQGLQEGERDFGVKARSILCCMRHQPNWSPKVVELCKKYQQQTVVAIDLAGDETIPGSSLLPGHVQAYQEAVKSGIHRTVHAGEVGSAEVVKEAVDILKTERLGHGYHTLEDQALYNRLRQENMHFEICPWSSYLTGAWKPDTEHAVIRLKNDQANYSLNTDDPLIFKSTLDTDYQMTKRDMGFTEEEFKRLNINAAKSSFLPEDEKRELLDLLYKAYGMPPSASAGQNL

[3] = target: T3, PfADA (Plasmodium falciparum, UniProt Q8IJA9); experiment: PfADA inhibition, Ki values from Tyler et al.; assay type: biochemical; details: times weaker than CF
T3 sequence (Q8IJA9 1-367): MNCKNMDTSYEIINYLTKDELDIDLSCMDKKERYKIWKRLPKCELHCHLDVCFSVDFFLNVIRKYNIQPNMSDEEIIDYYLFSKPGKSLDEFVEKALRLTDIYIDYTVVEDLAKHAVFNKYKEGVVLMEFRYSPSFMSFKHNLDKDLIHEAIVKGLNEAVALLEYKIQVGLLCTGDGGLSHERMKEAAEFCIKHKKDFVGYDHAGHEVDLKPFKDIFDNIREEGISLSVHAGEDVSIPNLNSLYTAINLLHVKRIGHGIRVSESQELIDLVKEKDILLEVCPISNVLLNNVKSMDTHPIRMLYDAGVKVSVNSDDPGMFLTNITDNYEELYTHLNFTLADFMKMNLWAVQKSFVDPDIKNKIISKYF

[4] = target: T1, PaMTADA; experiment: Inhibition assays for PaMTADA; assay type: biochemical
Source text: (§2) Inhibition assays. […] Controls having no enzyme and no inhibitor were included in all of the inhibition assays. The inhibition constant was obtained by fitting initial rates with variable inhibitor concentrations to equation (1) using GraFit 5 (Erithacus Software): […]
(§3) The inhibitor concentration was corrected using equation (2) when it was less than 10 times of the enzyme concentration (20): […]

[5] = target: T2, Human ADA; details: cited from earlier work; for Ki: equilibrium dissociation constant, from Tyler et al. (15); for inhibitory effect on human ADA: result in words
[6] = target: T3, PfADA; details: cited from earlier work
[7] = tested on: CC(O)[C@H]1O[C@@H](n2cnc3c(N)ncnc32)[C@H](S)[C@@H]1O; experiment: purified protein, by the assay type; details: other: PaMTADA, substrate, 25° C., pH 7.4
[8] = target: E. coli MTAN (Escherichia coli, UniProt P0AF12); experiment: Inhibition assays of EcMTAN; assay type: biochemical
[9] = tested on: P. aeruginosa PAO1; experiment: Growth of P. aeruginosa PAO1 with or without MTCF (OD600); assay type: cell-based, Pseudomonas aeruginosa PAO1; details: up to 1 μM, 36 hours at 37° C.
Protocol: (§4) Two hypotheses were considered for this activity. […] Second, the residual activity might arise from diffusional release of the inhibitor during the dilution (and incubation) of a small volume of cell extract into the larger volume of lysis buffer and other incubation buffer.

[10] = target: T1, PaMTADA; experiment: Inhibition of PaMTADA activity in P. aeruginosa cell lysates ([8-14C]MTA degradation); assay type: biochemical, Pseudomonas aeruginosa PAO1
Protocol: (§5) Inhibition of cellular PaMTADA activity. Inhibition of PaMTADA activity in cell lysates was carried out as follows. P. aeruginosa PAO1 (ATCC number: 15692) was grown at 37° C. to stationary phase in LB medium for 16 hours. Cells were collected by centrifugation at 16,100 g and washed three times with 100 mM phosphate, pH 7.4. Cells were lysed using BugBuster reagent (Novagen). […] Reaction mixtures were quenched with perchloric acid (1.8 M final concentration) and neutralized with potassium hydroxide. Precipitates were removed by centrifugation and carrier hypoxanthine, adenine, MTI, and MTA were added to the supernatant. Separation of the metabolites was carried out on a C18 Luna HPLC column (Phenomenex) with a gradient of 5 to 52.8% acetonitrile in 20 mM triethylamine acetate, pH 5.2. The UV absorbance at 260 nm was monitored. […] Fractions were collected in scintillation vials, dried, reconstituted in 200 μL deionized water prior to addition of 10 mL ULTIMA GOLD LSC-Cocktail scintillation fluid. The cpm of ^14C was counted at 20 min per cycle for three cycles using a Tri-Carb 2910TR liquid scintillation analyzer. Cell lysate was replaced by lysis buffer in reaction mixtures in control experiments. […] All other procedures were the same as described above.
(§6) [formula] where y is the percentage of degraded MTA at certain [I] […] Results and Discussion
Inhibition of cellular PaMTADA activity. […]

[11] = target: E. coli MTA nucleosidase (MTAN) (Escherichia coli, UniProt P0AF12); experiment: Degradation of MTCF by E. coli MTA nucleosidase; assay type: biochemical
Protocol: as §1
(§7) MTCF was examined to test if it might be metabolized by other enzymes related to MTA metabolism, namely by human MTA phosphorylase (MTAP) and E. coli MTA nucleosidase (MTAN).

[12] = target: T1, PaMTADA; experiment: Inhibition of cellular PaMTADA activity, MTCF added to LB medium during growth; assay type: cell-based, Pseudomonas aeruginosa PAO1
Protocol: as §5, §6, §4

[13] = target: T4, human MTAP (Homo sapiens, UniProt Q13126); experiment: Inhibition assays of HsMTAP; assay type: biochemical
T4 sequence (Q13126 1-283): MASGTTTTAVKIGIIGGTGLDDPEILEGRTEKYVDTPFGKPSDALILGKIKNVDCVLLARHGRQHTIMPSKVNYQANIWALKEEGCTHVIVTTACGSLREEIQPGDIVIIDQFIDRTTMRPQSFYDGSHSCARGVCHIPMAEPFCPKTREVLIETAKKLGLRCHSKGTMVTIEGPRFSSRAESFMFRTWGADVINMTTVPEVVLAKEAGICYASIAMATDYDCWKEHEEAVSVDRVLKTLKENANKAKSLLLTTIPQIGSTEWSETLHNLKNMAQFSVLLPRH
Protocol: as §1, §2, §3

[14] = target: T5, human MTA phosphorylase (MTAP) (Homo sapiens, UniProt Q13126); experiment: Degradation of MTCF by human MTA phosphorylase; assay type: biochemical
T5 sequence (Q13126 1-283): T4 sequence (Q13126 1-283)
Protocol: as §1, §7

[15] = PaMTADA, substrate, 25° C., pH 7.4
[16] = equilibrium dissociation constant, from Tyler et al. (15), read-out: PfADA Ki

Compound: Nc1ncnc2c1ncn2[C@@H]1O[C@H](CO)[C@@H](O)[C@H]1O [adenosine]
Km [1, 15]: 46 µM | kcat [1, 15]: 17 s⁻¹ and 17 ± 1 s⁻¹ | Km [2]: 22 ± 3 µM | kcat [2]: 36 ± 1 s⁻¹

binding affinity for PfADA relative to CF [3]: 150 times | Ki [4]: 0.067 nM
Compound: CCCSCC1OC(n2cnc3c2N=CNCC3O)CC1O (centres unmarked) [PrTDCF, 5′-propylthio-2′-deoxycoformycin]
binding to PaMTADA relative to MTDCF ([4]; times weaker than MTDCF): 8 times | Ki [5]: > 10000 nM

Compound: Nc1ncnc2nc[nH]c12 [adenine]
deaminase activity on substrate [1]: inactive

Ki [4]: 37 nM
Compound: OC[C@H]1O[C@@H](n2cnc3c2NC=NC[C@H]3O)C[C@@H]1O [DCF, 2′-deoxycoformycin, reference compound]

Compound: Nc1ncnc2c1ncn2[C@@H]1O[C@H](CSCC[C@H](N)C(=O)O)[C@@H](O)[C@H]1O [SAH, S-adenosylhomocysteine]
deaminase activity on substrate [1]: inactive

Compound: Nc1nc2c(ncn2[C@@H]2O[C@H](CO)[C@@H](O)[C@H]2O)c(=O)[nH]1 [guanosine]
deaminase activity on substrate [1]: inactive

Ki ([4]; equilibrium dissociation constant (Ki or Ki*), 25° C., pH 7.4, 100 μM MTA, read-out: PaMTADA Ki): 90 ± 10 nM
Compound: OC[C@H]1O[C@@H](n2cnc3c2N=CNC[C@H]3O)[C@H](O)[C@@H]1O [Coformycin (CF), Coformycin]

Compound: O[C@@H]1CNC=Nc2c1ncn2[C@H]1C[C@H](O)[C@@H](CSc2ccccc2)O1 [PhTDCF, 5′-phenylthio-2′-deoxycoformycin]
Ki [6, 16]: 60 nM | Ki ([4]; 25° C., pH 7.4, 100 μM MTA, read-out: PaMTADA Ki / dissociation constant): 0.13 nM

Compound: PaMTADA (Pseudomonas aeruginosa PAO1)
Km [7]: 1.5 µM | kcat [7]: 24.6 ± 0.8 s⁻¹ | kcat/Km [7]: 160 ± 30 ×10^5 M^−1s^−1

Compound: CSCC1OC(n2cnc3c2N=CNCC3O)CC1O (centres unmarked) [MTDCF, 5′-methylthio-2′-deoxycoformycin]
Ki [6, 16]: 0.7 ± 0.2 nM | Ki ([6]; from (15), read-out: PfADA Ki / equilibrium dissociation constant): 0.7 nM | binding affinity for PfADA relative to CF [3]: 9 times | Ki [4]: 0.008 nM | Ki [5]: > 10000 nM | inhibitory effect on human ADA [5]: no inhibitory effect

Compound: CSC[C@H]1O[C@@H](n2cnc3c2N=CNC[C@H]3O)[C@H](O)[C@@H]1O [MTCF, 5′-methylthiocoformycin]
Ki [8]: > 5000 nM | effect on cell growth [9]: no effect | degradation of MTA ([10]; 50 nM inhibitor in cell lysate): completely blocked | IC50 ([10]; MTCF added to P. aeruginosa cell lysate, [8-14C]MTA degradation, 20 min): 4 nM | degradation of MTCF, kobs [11]: < 0.001 s⁻¹ | concentration at which maximal inhibition was achieved ([12]; MTCF in LB medium): 10 nM | IC50 ([12]; MTCF in LB medium during growth, corrected for residual activity): 3 nM | PaMTADA activity ([12]; cells grown with 500 nM MTCF in LB, 100 nM MTCF added to cell lysate): All PaMTADA activity was inhibited | permeability to P. aeruginosa cells ([12]; inferred from inhibition after growth in MTCF-containing LB): permeable | Ki [5]: > 10000 nM | inhibitory effect on human ADA [5]: no significant inhibition; also recorded: no significant inhibitory effects | Ki [13]: 3000 nM | inhibition of human MTA phosphorylase ([13]; result in words): no significant inhibition; also recorded: no significant inhibitory effects | degradation of MTCF, kobs [14]: < 0.001 s⁻¹
